According to patent US9109001B2, “3′,5′-cyclic phosphoramidate prodrugs for HCV infection” (priority 2012, dated 2015):
Read-outs that look alike come from different tables or passages of the source.

Legend:
[1] = Stability in simulated intestinal fluid; format: in vitro ADME; conditions: 100 μM, 2 hours at 37° C.; percent of peak area at time zero
Protocol: Stability in Simulated Gastric and Intestinal Fluids: Simulated gastric and intestinal fluids containing pepsin and pancreatin respectively were prepared according to the U.S. Pharmacopoeia USP291 procedure (www.pharmacopeia.cn/v29240/usp29nf24s0_ris1s126.html). Test compound (final concentration 100 μM) was incubated in duplicate in the appropriate fluid for 2 hours at 37° C. The samples were quenched with 200 μl cold acetonitrile, vortexed for 30 seconds and then centrifuged at 16,100 g for 10 min. The supernatants were analyzed by HPLC on a C-18 column with UV detection at 252 nm. The time 0 samples were prepared by adding SGF or SIF fluid to the quenching solvent followed by the test compound. Stability of the compound was determined by peak area the test compound after incubation and calculated as percent of the peak area observed at time zero.

[2] = Cytotoxicity evaluation (CellTiter-Blue Cell Viability Assay); format: cell-based, human; conditions: human, Zluc cells, read-out: HCV Replicon CC50
[3] = Stability in fresh human whole blood; format: in vitro ADME; conditions: 0.5 μM, percent unchanged test compound
Protocol: (§1) Stability in Fresh Whole Blood: Stability of test compounds were determined in fresh human whole blood with K2EDTA as the anticoagulant (stored refrigerated at 2-8° C. and used within 7 days of receipt). The experiment was conducted with three replicates for each time point. Whole blood, pre-incubated at 37° C. for 10-15 minutes, was fortified with a solution of test compound for a final concentration of 0.5 μM and mixed for 30 sec. At intervals (0, 0.5, 1 and 2 hr), three 50-μL aliquots were combined with 200 μL (each) of an ice-cold solution of the internal standard (carbutamide 500 ng/mL in acetonitrile). The samples were vortexed for 30 sec and then centrifuged at 16,100 g for 5 min. The supernatant was analyzed by LC-MS/MS. The MS peak area ratio of the test compound versus the internal standard was calculated and percent unchanged test compound was calculated for each time point using this ratio.

fresh human hepatocytes = experiment: Release of active metabolite in fresh human hepatocytes; format: in vitro ADME; conditions: 10 μM
Protocol: Assay for the Release of Active Metabolite in Primary Hepatocytes: Plates of fresh human and mouse hepatocytes were obtained on ice. The medium was removed and replaced with hepatocyte culture medium (William's E supplemented with penicillin-streptomycin, 1% L-glutamine, 1% insulin-transferrin-selenium and 0.1 μM Dexamethasone (Invitrogen) or with Invitro GRO HI medium complemented with Torpedo antibiotics (Celsis)). Cells were left overnight in an incubator at 37° C. to acclimatize to culture and the medium.
Hepatocyte incubations were conducted at a final volume of 0.5 mL hepatocyte culture medium/well (0.8 million cells/well for human and 0.5 million cells/well for mouse; 12 well plate no overlay, collagen coat). Culture medium from overnight incubation of cells was removed and replaced with fresh medium, pre-warmed to 37° C., containing 10 μM of test compound from a stock solution in DMSO (final DMSO concentration was 0.1%). At each specific time point, incubation medium was removed and cell monolayers were carefully washed two times with ice-cold PBS. Following the last wash, all PBS was carefully removed and 1.0 mL of extraction solution (ice-cold 70% methanol/30% water) added. Cells were scraped off and suspended in the extraction solution, transferred to 2 mL polypropylene microfuge tubes and intracellular contents extracted overnight at −20° C.
After the overnight treatment the cellular extracts were prepared by centrifugation at 16,000×g for 10 min to remove cellular debris. The remaining sample was then dried using a refrigerated centrivap concentrator. Dry extracts were reconstituted in 1000 μL of HPLC-grade water and centrifuged at 16,000×g for 10 min. Aliquots (100 μL each) of the supernatant were transferred into a 96 well plate and internal standard (4 ng/mL final concentration) was added as the internal standard (IS) for LC-MS/MS analysis.
The incubation time points were 6, 24 and 48 hours for human hepatocytes and 1, 4, 8, 12 and 24 hours for mouse hepatocytes.

Stability in mouse blood = format: in vitro ADME; conditions: on ice, percent unchanged test compound
Protocol: as §1
The stability in mouse blood was determined on ice at 0, 0.5 and 1 hr as above.

HCV genotype 1b replicon = experiment: HCV Replicon Assay; format: cell-based; conditions: Zluc (Huh-7-derived) cells, HCV genotype 1b replicon, luciferase reporter, 72 hours, read-out: HCV Replicon EC50
Protocol: Huh-7-derived cell line (Zluc) that harbors an HCV genotype 1b replicon and a luciferase reporter gene was grown in Dulbecco's Modified Eagle Medium (DMEM) supplemented with 10% fetal bovine serum, 2 mM GlutaMAX, 1% MEM nonessential amino acids, 100 IU/mL penicillin, 100 μg/mL streptomycin, and 0.5 mg/mL Geneticin® (G418). For dose response testing the cells were seeded in 96-well plates at 7.5×10^3 cells per well in a volume of 50 μL, and incubated at 37° C./5% CO2. Drug solutions were made up freshly in Huh-7 media as 2× stocks. Ten additional 5-fold dilutions were prepared from these stocks in DMEM without G418. At least three hours after Zluc cells were seeded, drug treatment was initiated by adding 50 μL of drug dilutions to the plates in duplicate. Final concentrations of drug ranged from 100 μM to […]. Cells were then incubated at 37° C./5% CO2. Alternatively, compounds were tested at two concentrations (1 μM and 10 μM). […] For this, media was removed from the plates via gentle tapping. Fifty microliters of ONE-glo luciferase assay reagent was added to each well. The plates were shaken gently for 3 min at room temperature and luminescence was measured on a Victor^3 V 1420 multilabel counter (Perkin Elmer) with a 1 second read time using a 700 nm cut-off filter. The EC50 values were calculated from dose response curves from the resulting best-fit equations determined by Microsoft Excel and XLfit 4.1 software. When screening at two fixed concentrations, the results were expressed as % inhibition at 1 μM and 10 μM.

[4] = Stability in human liver microsomes; format: in vitro ADME; conditions: 10 μM, 1.0 mg/mL protein, NADPH, 60 min; percent unchanged
Protocol: Stability in Liver and Intestinal Subcellular Fractions: Stability of test compounds were determined in subcellular fractions (microsomes and S9) of human liver and intestine in duplicate for each matrix. Pooled liver and intestinal microsomal, intestinal and liver S9 proteins (1.0 mg/mL), suspended in incubation buffer (100 mM potassium phosphate, pH 7.4, 5 mM MgCl2, and 0.1 mM EDTA), were preincubated for 5 min at 37° C. with 10 μM of a test compound from a 10 mM stock solution in DMSO (final DMSO concentration was 0.1%); the reaction was initiated by the addition of NADPH (3 mM final concentration). At specific times (0 and 60 min), 0.1 mL samples were taken and the reaction terminated by the addition of 4 volumes of stop solution (acetonitrile with 500 ng/mL carbutamide as an internal standard). The samples were vortexed for 30 sec and then centrifuged at 16,000 g for 10 min. 100 μL of supernatants were transferred to 96 deep-well plates preloaded with 100 μL distilled water and analyzed after mixing by LC-MS/MS. The MS peak area ratio of the test compound versus the internal standard was calculated and percent unchanged test compound over 60 minutes was calculated using this ratio.

Zluc cells = experiment: Cytotoxicity evaluation (CellTiter-Blue Cell Viability Assay); format: cell-based, human; conditions: read-out: HCV Replicon CC50

Compound | Stability SIF [1] | CC50 [2] [nM] | Stability WB_Human (37° C.; 2 hr) [3] [%] | FHH TP AUC (pmol · hr/mill cells) (fresh human hepatocytes) | Stability WB_Mouse (ice; 1 hr) (Stability in mouse blood) [%] | EC50 (HCV genotype 1b replicon; Hepatitis C virus, 72 h) [nM] | Stability HLM (1 hr) [4] [%] | CC50 (Zluc cells) [nM] | EC50 (HCV genotype 1b replicon) [nM]
CCOc1nc(N)nc2c1ncn2[C@@H]1O[C@@H]2COP(=O)(NCCC(=O)OC(C)C)O[C@H]2[C@@]1(C)F (single isomer, unassigned) [Compound 2 Diastereomer 1] | 98% | > 50000 | 98 | BLD^a | 15 | 250 to 1000 | 6.7 | – | –
CCOc1nc(N)nc2c1ncn2[C@@H]1O[C@@H]2COP(=O)(N[C@@H](C)COC(=O)C(C)C)O[C@H]2[C@@]1(C)F (single isomer, unassigned) [Compound 3 Diastereomer 2] | 39% | > 50000 | 1 | 1426 pmol · hr/mill cells | 20 | < 250 | 0.3 | – | –
CCOc1nc(N)nc2c1ncn2[C@@H]1O[C@@H]2COP(=O)(N[C@@H](C)C(=O)OCC(C)C)O[C@H]2[C@@]1(C)F (single isomer, unassigned) [Compound 4 Diastereomer 1] | 42% | > 50000 | 77 | 1759 pmol · hr/mill cells | 1 | < 250 | – | – | –
CCOc1nc(N)nc2c1ncn2[C@@H]1O[C@@H]2COP(=O)(N[C@@H](C)C(=O)OCC(C)C)O[C@H]2[C@@]1(C)F (single isomer, unassigned) [Compound 4 Diastereomer 2] | BLD^a | – | 1 | 1575 pmol · hr/mill cells | – | – | – | > 50000 | < 250
CCOc1nc(N)nc2c1ncn2[C@@H]1O[C@@H]2COP(=O)(N[C@@H](C)C(=O)OC(C)C)O[C@H]2[C@@]1(C)O (single isomer, unassigned) [Compound 5 Diastereomer 1] | 5% | > 50000 | 87 | 3615 pmol · hr/mill cells | – | – | – | – | 250 to 1000
CCOc1nc(N)nc2c1ncn2[C@@H]1O[C@@H]2COP(=O)(N[C@@H](C)C(=O)OC(C)C)O[C@H]2[C@@]1(C)O (single isomer, unassigned) [Compound 5 Diastereomer 2] | 77% | – | 83 | 2108 pmol · hr/mill cells | – | – | – | > 50000 | 1000 to 10000
CCOC(=O)C(C)(C)NP1(=O)OC[C@H]2O[C@@H](n3cnc4c(OCC)nc(N)nc43)[C@](C)(F)[C@@H]2O1 (single isomer, unassigned) [Compound 7 Diastereomer 1] | 91% | > 50000 | 96 | 1148 pmol · hr/mill cells | – | 250 to 1000 | – | – | –
CCOC(=O)C(C)(C)NP1(=O)OC[C@H]2O[C@@H](n3cnc4c(OCC)nc(N)nc43)[C@](C)(F)[C@@H]2O1 (single isomer, unassigned) [Compound 7 Diastereomer 2] | 102% | – | 36 | 830 pmol · hr/mill cells | – | – | – | > 50000 | < 250
CCOc1nc(N)nc2c1ncn2[C@@H]1O[C@@H]2COP(=O)(N[C@@H](CC)COC(=O)C(C)C)O[C@H]2[C@@]1(C)F (single isomer, unassigned) [Compound 8 Diastereomer 1] | 15% | > 50000 | 18 | 308 pmol · hr/mill cells | – | < 250 | – | – | –
CCOc1nc(N)nc2c1ncn2[C@@H]1O[C@@H]2COP(=O)(N[C@@H](CC)COC(=O)C(C)C)O[C@H]2[C@@]1(C)F (single isomer, unassigned) [Compound 8 Diastereomer 2] | 69% | – | 1 | 359 pmol · hr/mill cells | – | – | – | > 50000 | < 250
CCOc1nc(N)nc2c1ncn2[C@@H]1O[C@@H]2COP(=O)(N[C@@H](C)C(=O)OC3CCCC3)O[C@H]2[C@@]1(C)F (single isomer, unassigned) [Compound 10 Diastereomer 1] | 2% | > 50000 | 5 | 1944 pmol · hr/mill cells | – | < 250 | – | – | –
CCOc1nc(N)nc2c1ncn2[C@@H]1O[C@@H]2COP(=O)(N[C@@H](C)C(=O)OC3CCCC3)O[C@H]2[C@@]1(C)F (single isomer, unassigned) [Compound 10 Diastereomer 2] | 67% | – | 80 | 2752 pmol · hr/mill cells | – | – | – | ≤ 50000 | < 250
CCOc1nc(N)nc2c1ncn2[C@@H]1O[C@@H]2COP(=O)(N[C@@H](C)COC(=O)C(C)C)O[C@H]2[C@@]1(C)F (stereo partly shown) [Compound 3] | – | > 50000 | – | – | – | < 250 | – | – | –
